The subject of one assay is A431 cells. The assay can be described thus: MTT assay, A431. Format: cell-based, human. The conditions noted are these: A431 (high EGFR-expressing), 10 μM. As for the experimental part:
(§1) The cell lines MCF-7 and A431 were cultured in Dulbecco’s Modified Eagle’s Medium (DMEM, Gibco, USA), while HL-60, H1299, and A549 cells were maintained in RPMI-1640 medium (Gibco, USA). Both mediums were enriched with 10% fetal bovine serum and 1% penicillin/streptomycin. […] All cell cultures were incubated at 37°C in an atmosphere containing 5% CO2.
(§2) Cells in the exponential growth phase were seeded into 96-well plates and allowed to adhere overnight. Subsequently, they were treated in triplicate with various concentrations of the compounds (0, 1.56, 3.13, 6.25, 12.5, 25, 50, 100 µM), […]. After 24 h, 20 µL of Methyl-thiazolyldiphenyl-tetrazolium bromide (MTT, 5 mg/mL, Thermo Fisher Scientific) was added to each well and incubated for a minimum of 4 h. Following the incubation, the medium containing the compounds and MTT was removed from each well, and 200 µL of dimethyl sulfoxide (DMSO) was added. The plates were then shaken for 10 min at 37°C to dissolve the formazan crystals. The absorbance was measured using a microplate reader (BioTek Synergy 4) at a wavelength of 490 nm.
In general terms: Formazan colour is commonly taken as a measure of viable cells.

A further assay deals with A549 cells. Nature of the assay: MTT assay, A549. In kind it is cell-based, human. Conditions: A549 (high EGFR-expressing), 10 μM. As for the experimental part:
as §1, §2

Another assay has as its target HER4 (Homo sapiens, UniProt Q15303). The assay can be described thus: Kinase profiling. Format: biochemical. As for the experimental part:
(§3) The experiments were conducted in accordance with the manufacturer’s guidelines (Promega). The procedure began with a kinase reaction, where 5 μL of 1× kinase buffer was utilized, and the mixture was incubated at room temperature for 60 min. This step was followed by the addition of 5 μL of ADP-Glo™ reagent to terminate the kinase reaction and to deplete any remaining ATP, with a subsequent incubation period of 40 min at room temperature. Next, 10 μL of kinase detection reagent was added to convert ADP back into ATP, and luciferase along with luciferin was introduced to facilitate ATP detection. This mixture was then incubated at room temperature for an additional 30 min. Detection was carried out using a BioTek Synergy4 instrument, and data analysis, including curve fitting and presentation, was performed using GraphPad Prism version 5.0. […]; [Song et al., 2017]; [Abou-Zied et al., 2019]).

The target of the next assay is FGFR2 (Homo sapiens, UniProt P21802). Nature of the assay: Kinase profiling. Format: biochemical. The conditions noted are these: one of the other seven tyrosine kinases. As for the experimental part: as §3
The next assay has as its target T1, EGFR L858R/T790M (Homo sapiens, UniProt P00533, L858R/T790M).
T1 construct: purchased Promega Corporation, USA
Nature of the assay: Kinase inhibition assay (ADP-Glo, Promega). Format: biochemical. The conditions noted are these: in vitro kinase assay; read-out: IC50 against EGFR L858R/T790M. The protocol: (§4) The extracellular ligand-binding domain of EGFR, tagged with His, and the intracellular tyrosine kinase (TK) domain of EGFR, tagged with GST, were acquired from Sinobiological, China. […] Cell lines including MCF-7, A549, A431, H1299, HL-60, and MCF-10A were obtained from the China Infrastructure Cell Line Resources.
(§5) The experiments were conducted in accordance with the manufacturer’s guidelines (Promega). The procedure began with a kinase reaction, where 5 μL of 1× kinase buffer was utilized, and the mixture was incubated at room temperature for 60 min. This step was followed by the addition of 5 μL of ADP-Glo™ reagent to terminate the kinase reaction and to deplete any remaining ATP, with a subsequent incubation period of 40 min at room temperature. Next, 10 μL of kinase detection reagent was added to convert ADP back into ATP, and luciferase along with luciferin was introduced to facilitate ATP detection. This mixture was then incubated at room temperature for an additional 30 min. Detection was carried out using a BioTek Synergy4 instrument, and data analysis, including curve fitting and presentation, was performed using GraphPad Prism version 5.0.
(§6) All experiments were repeated at least three times, and the data are presented as mean ± standard deviation (SD). The statistical analyses were performed using Origin. EC50 or IC50 values were obtained by fitting the data to a four-parameter Hill model of the graph of log dose against percentage cell viability or inhibition from at least three sets of experiments. Difference between two groups were analyzed by Student’s t test (two-sided) and significance was set at p < 0.05. The specific details about statistical methods are introduced in respective figure legends.
(ADP-Glo turns the ADP formed in a reaction into a luminescent signal.)

The target in a further assay is T2, EGFR T790M (Homo sapiens, UniProt P00533, T790M).
T2 construct: purchased Promega Corporation, USA
T2 sequence (P00533 25-1210 T790M): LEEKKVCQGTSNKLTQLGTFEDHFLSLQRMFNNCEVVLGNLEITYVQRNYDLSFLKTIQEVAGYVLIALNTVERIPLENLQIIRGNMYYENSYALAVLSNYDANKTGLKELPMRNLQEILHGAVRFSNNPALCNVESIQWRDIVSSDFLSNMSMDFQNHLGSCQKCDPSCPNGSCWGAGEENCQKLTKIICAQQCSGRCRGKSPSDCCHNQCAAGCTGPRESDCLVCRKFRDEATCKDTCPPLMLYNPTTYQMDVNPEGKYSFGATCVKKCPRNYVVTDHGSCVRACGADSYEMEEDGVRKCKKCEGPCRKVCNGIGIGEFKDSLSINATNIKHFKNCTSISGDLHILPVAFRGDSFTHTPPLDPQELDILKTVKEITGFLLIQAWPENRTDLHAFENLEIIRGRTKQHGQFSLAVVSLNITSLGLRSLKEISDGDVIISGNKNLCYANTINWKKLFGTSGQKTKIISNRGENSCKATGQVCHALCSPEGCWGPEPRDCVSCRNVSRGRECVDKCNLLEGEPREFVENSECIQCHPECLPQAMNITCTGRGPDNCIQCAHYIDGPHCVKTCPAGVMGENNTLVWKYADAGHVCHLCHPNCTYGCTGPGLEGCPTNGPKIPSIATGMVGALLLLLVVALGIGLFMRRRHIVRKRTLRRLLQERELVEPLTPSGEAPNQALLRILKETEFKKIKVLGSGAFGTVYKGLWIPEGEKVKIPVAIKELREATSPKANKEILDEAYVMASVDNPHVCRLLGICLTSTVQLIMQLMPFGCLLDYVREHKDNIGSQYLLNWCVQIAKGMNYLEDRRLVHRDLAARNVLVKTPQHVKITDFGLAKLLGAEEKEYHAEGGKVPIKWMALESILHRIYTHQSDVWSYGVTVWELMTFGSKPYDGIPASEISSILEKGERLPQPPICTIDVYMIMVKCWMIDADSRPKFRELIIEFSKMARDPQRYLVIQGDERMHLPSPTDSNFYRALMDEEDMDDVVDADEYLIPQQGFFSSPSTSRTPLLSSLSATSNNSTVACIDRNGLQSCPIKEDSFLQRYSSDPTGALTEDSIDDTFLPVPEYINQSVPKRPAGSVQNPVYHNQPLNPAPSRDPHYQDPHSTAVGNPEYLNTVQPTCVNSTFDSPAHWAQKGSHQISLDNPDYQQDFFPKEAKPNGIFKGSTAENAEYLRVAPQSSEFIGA
The assay can be described thus: Kinase inhibition assay (ADP-Glo, Promega). In kind it is biochemical. The conditions noted are these: in vitro kinase assay; read-out: IC50 against EGFR T790M. The protocol:
as §4, §5, §6

The target of the next assay is T3, EGFR L858R (Homo sapiens, UniProt P00533, L858R).
T3 construct: purchased Promega Corporation, USA
The assay can be described thus: Kinase inhibition assay (ADP-Glo, Promega). Format: biochemical. The conditions noted are these: in vitro kinase assay; read-out: IC50 against EGFR L858R. As for the experimental part: as §4, §5, §6

A further assay deals with T4, WT EGFR (Homo sapiens, UniProt P00533).
T4 construct: purchased Promega Corporation, USA
T4 sequence (P00533 25-1210): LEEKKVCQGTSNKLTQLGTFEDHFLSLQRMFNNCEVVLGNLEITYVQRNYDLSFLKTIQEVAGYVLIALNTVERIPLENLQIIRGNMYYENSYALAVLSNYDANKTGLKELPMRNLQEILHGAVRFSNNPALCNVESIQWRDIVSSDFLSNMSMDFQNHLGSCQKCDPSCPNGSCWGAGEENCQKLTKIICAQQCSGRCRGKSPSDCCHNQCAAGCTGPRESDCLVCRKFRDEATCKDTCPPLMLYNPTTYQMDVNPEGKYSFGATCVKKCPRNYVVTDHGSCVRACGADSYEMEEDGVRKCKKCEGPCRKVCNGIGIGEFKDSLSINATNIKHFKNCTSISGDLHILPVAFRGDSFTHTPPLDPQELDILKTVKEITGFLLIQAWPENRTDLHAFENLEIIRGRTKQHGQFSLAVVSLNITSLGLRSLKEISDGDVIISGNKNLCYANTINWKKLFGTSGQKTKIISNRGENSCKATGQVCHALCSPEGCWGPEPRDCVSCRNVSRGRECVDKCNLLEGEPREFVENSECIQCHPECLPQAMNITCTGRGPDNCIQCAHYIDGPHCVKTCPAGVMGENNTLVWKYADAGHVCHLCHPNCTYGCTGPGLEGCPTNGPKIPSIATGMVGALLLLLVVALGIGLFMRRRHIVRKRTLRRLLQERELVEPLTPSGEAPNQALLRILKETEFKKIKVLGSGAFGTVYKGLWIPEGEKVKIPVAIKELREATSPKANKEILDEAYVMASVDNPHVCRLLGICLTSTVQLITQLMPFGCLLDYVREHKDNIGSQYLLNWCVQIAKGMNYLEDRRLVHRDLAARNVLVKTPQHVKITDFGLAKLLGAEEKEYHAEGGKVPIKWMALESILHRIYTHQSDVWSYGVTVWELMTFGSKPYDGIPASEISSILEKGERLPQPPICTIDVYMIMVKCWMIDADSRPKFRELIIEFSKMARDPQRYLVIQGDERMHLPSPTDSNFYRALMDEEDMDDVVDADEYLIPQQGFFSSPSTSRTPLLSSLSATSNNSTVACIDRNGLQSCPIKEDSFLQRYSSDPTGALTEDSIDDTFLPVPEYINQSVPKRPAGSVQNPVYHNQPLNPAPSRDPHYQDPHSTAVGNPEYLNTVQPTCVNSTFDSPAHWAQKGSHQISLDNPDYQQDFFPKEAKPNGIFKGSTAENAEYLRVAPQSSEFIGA
Nature of the assay: Kinase inhibition assay (ADP-Glo, Promega). The conditions noted are these: in vitro kinase assay; read-out: IC50 against WT EGFR. Format: biochemical. The protocol: as §4, §5, §6

In a further assay the test system is PARP1. Nature of the assay: Western blotting of MCF-7 lysates, PARP1. In kind it is cell-based, human. The conditions noted are these: for PARP1 WB Normalized: control 0 µM 1.034604877. The protocol: MCF-7 cell lysates were prepared by rinsing the cells twice with PBS and then solubilizing them in lysis buffer (NP40 supplemented with protease and phosphatase inhibitor cocktails) on ice. The solubilization process involved rotating the lysis buffer/cell mixture end over end for 10 min at 4°C. After centrifugation for 10 min at 4°C to remove insoluble material, the protein concentration of the solubilized protein was determined using a BCA assay. Subsequently, samples were diluted in SDS sample buffer. Equivalent amounts of protein were separated by SDS-PAGE, transferred to PVDF membranes, and probed with the indicated antibody. Prior to incubation with primary antibodies overnight at 4°C, the membranes were blocked with 5% skim milk-TBST. The antibodies and their sources were as follows: PARP1 (1:500, Santa Cruz Biotechnology), Cleaved Caspase-3 (1:1000, Cell Signaling Technology), BAX (1:500, Santa Cruz Biotechnology), BCL-2 (1:500, Santa Cruz Biotechnology), and GAPDH (1:500, Santa Cruz Biotechnology). Following incubation with horseradish peroxidase-conjugated goat anti-mouse or goat anti-rabbit secondary antibody (Santa Cruz Biotechnology), the detected proteins were visualized using the Pierce Enhanced Chemiluminescence (ECL) reagent and a UV Products imaging system. Band intensities were quantified using the National Institutes of Health ImageJ software.
(In general: Immunoblotting shows a protein as a band on a membrane.)

Each structure is given as a SMILES string. Several values for one entry are separate records, joined by “and”; a condition that tells them apart may be missing. Identical values can stand only once.

Chain of HER4 (Q15303 26-1308): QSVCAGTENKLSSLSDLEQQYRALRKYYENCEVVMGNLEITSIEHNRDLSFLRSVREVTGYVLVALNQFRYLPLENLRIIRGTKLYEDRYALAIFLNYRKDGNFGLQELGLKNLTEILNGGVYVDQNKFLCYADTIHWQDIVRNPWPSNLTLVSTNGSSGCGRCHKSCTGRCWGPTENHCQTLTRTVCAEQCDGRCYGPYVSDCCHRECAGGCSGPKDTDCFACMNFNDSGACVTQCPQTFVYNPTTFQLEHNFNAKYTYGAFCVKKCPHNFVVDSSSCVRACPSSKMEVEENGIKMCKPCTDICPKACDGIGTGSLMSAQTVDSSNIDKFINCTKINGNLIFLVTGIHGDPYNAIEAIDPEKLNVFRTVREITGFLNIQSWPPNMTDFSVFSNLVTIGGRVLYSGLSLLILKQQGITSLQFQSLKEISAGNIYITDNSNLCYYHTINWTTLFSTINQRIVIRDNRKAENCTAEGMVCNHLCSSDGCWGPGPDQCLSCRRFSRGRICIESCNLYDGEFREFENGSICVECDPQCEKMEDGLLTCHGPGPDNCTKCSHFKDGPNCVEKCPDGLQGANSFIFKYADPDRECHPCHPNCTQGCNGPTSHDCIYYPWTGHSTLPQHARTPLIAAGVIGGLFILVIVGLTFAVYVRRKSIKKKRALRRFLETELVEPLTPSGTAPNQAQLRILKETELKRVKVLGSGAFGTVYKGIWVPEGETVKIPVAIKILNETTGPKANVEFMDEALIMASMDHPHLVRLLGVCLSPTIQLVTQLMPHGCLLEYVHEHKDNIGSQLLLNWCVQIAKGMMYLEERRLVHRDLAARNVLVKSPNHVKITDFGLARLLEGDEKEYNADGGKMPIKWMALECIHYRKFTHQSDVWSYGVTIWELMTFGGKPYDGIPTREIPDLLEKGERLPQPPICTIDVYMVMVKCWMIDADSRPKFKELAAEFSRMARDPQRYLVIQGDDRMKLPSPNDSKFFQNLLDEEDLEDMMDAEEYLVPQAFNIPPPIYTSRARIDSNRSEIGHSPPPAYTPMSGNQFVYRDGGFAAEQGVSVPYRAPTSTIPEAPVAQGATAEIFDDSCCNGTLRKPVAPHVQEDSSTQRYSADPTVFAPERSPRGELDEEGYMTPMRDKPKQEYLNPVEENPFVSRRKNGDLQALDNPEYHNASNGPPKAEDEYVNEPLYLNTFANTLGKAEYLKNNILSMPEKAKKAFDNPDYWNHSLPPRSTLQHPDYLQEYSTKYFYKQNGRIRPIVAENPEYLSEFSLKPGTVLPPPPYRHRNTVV
T1 sequence (P00533 25-1210 T790M/L858R): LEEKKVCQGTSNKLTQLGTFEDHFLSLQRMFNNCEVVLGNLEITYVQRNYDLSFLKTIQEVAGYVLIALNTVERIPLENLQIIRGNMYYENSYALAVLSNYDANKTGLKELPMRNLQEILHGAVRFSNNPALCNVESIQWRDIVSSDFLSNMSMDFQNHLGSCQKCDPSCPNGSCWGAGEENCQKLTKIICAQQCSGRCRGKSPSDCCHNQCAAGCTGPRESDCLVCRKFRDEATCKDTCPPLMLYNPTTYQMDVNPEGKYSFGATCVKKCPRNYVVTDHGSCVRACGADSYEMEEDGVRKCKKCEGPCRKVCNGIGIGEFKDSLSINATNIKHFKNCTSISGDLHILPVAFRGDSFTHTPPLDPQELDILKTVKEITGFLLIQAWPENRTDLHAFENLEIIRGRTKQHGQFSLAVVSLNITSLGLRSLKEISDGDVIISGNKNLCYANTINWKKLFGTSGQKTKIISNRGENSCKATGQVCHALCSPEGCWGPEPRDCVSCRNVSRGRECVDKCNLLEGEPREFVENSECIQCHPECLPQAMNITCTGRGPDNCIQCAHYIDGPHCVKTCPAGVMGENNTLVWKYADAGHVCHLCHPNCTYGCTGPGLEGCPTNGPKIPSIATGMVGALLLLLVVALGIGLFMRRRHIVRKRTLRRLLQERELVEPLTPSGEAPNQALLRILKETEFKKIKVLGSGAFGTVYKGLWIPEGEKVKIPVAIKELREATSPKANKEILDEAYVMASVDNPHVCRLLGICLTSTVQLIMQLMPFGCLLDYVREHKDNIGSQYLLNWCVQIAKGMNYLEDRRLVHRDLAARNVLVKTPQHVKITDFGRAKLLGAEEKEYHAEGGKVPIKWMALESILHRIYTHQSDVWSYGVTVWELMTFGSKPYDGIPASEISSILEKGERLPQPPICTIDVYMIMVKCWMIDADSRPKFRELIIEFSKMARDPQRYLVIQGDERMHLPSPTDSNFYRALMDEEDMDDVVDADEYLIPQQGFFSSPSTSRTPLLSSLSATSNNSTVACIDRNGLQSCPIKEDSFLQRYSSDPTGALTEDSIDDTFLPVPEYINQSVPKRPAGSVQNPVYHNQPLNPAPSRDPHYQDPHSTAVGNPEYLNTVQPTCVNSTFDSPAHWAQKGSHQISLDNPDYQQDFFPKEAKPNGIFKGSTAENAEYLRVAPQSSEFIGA

For `COC(=O)C/C(C)=C/C(=O)O[C@@H]1C[C@@H](C)[C@H]2[C@@H](C=C[C@H](CC(C)C)[C@]2(C)C(=O)/C=C\O)[C@@H]1O` [Tandyukisin], the results for the cell lethality percentage in the assay on A431 cells and in the assay on A549 cells were 67.3% ± 2.7% and 72.1% ± 1.8%, respectively. For the same compound, the IC50 on HER4 is 31.1 ± 0.1 nM; on FGFR2, greater than 100000 nM; on EGFR L858R/T790M it was 237 ± 28 nM; at EGFR T790M, 32.6 ± 0.6 nM; on EGFR L858R it was 3.1 ± 0.1 nM; at WT EGFR, 10.6 nM and 10 nM and ~10 nM. In addition, the results for the “PARP1 WB Gray Value” with PARP1 (5 µM), in the assay on PARP1 (10 µM) and in the assay with PARP1 (20 µM) were 43160.066, 33044.409 and 24731.459, respectively. The “PARP1 WB Normalized” value is 0.9844 in the assay with PARP1 (5 µM), 0.759 in the assay with PARP1 (10 µM) and 0.7232 in the assay on PARP1 (20 µM). Further, the “expression level of PARP1” value with PARP1 (MCF-7, upon treatment) is on record as “decreased”.

The values are drawn from publication PMC11094307, “Marine-derived EGFR inhibitors: novel compounds targeting breast cancer growth and drug resistance” (Frontiers in Pharmacology, 2024).
